# Measured values as given in the supplement of paper PMC10307832.
# How the values were obtained:
# Assay in all cases: relative viability (nuclei count vs DMSO), 5 days (fraction); higher = more cells survive
# KN-93 = compound: CN(C/C=C/C1=CC=C(C=C1)Cl)CC2=CC=CC=C2N(CCO)S(=O)(=O)C3=CC=C(C=C3)OC [KN-93]
# Summary of the method: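 For viability, nuclei in each treated well were divided by nuclei in vehicle wells and the median across plates was taken. Lung cancer cell lines in 1536-well plates were pinned with five library-drug doses (not always all listed) spaced by √10, cultured 5 days without medium change, and imaged at 4× after Hoechst staining, with plates passing only at control CV below 25% and at least one doubling.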
# KN-93 + Trametinib = compound: CN(C/C=C/C1=CC=C(C=C1)Cl)CC2=CC=CC=C2N(CCO)S(=O)(=O)C3=CC=C(C=C3)OC [KN-93] + CC(=O)Nc1cccc(-n2c(=O)n(C3CC3)c(=O)c3c(Nc4ccc(I)cc4F)n(C)c(=O)c(C)c32)c1 [Trametinib] (partner 0.02 µM)
# Summary of the method: (§1)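 Lung cancer cell lines were pin-tool dosed in 1536-well plates on the day after seeding, with either a lone drug or a fixed anchor-drug dose plus five library-drug doses (not always all listed) in √10 steps. Nuclei were counted on 4× images after 5 days. Relative viability is the ratio of treated-well to vehicle-well nuclei counts, with each value a median of duplicate plates.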
# KN-93 + Lapatinib = compound: CN(C/C=C/C1=CC=C(C=C1)Cl)CC2=CC=CC=C2N(CCO)S(=O)(=O)C3=CC=C(C=C3)OC [KN-93] + CS(=O)(=O)CCNCc1ccc(-c2ccc3ncnc(Nc4ccc(OCc5cccc(F)c5)c(Cl)c4)c3c2)o1 [Lapatinib] (partner 2 µM)
# Summary of the method: as §1
# KN-93 + Vorinostat = compound: CN(C/C=C/C1=CC=C(C=C1)Cl)CC2=CC=CC=C2N(CCO)S(=O)(=O)C3=CC=C(C=C3)OC [KN-93] + O=C(CCCCCCC(=O)Nc1ccccc1)NO [Vorinostat] (partner 1 µM)
# Summary of the method: as §1
# KN-93 + AZD7762 = compound: CN(C/C=C/C1=CC=C(C=C1)Cl)CC2=CC=CC=C2N(CCO)S(=O)(=O)C3=CC=C(C=C3)OC [KN-93] + NC(=O)Nc1cc(-c2cccc(F)c2)sc1C(=O)N[C@H]1CCCNC1 [AZD7762] (partner 0.2 µM)
# Summary of the method: as §1
Cell Line,relative viability (KN-93; 0.08 µM),relative viability (KN-93; 0.253 µM),relative viability (KN-93; 2.53 µM),relative viability (KN-93; 8 µM),relative viability (KN-93 + Trametinib; first compound 0.08 µM),relative viability (KN-93 + Trametinib; first compound 0.253 µM),relative viability (KN-93 + Trametinib; first compound 2.53 µM),relative viability (KN-93 + Trametinib; first compound 8 µM),relative viability (KN-93 + Lapatinib; first compound 0.08 µM),relative viability (KN-93 + Lapatinib; first compound 0.253 µM),relative viability (KN-93 + Lapatinib; first compound 2.53 µM),relative viability (KN-93 + Lapatinib; first compound 8 µM),relative viability (KN-93 + Vorinostat; first compound 0.08 µM),relative viability (KN-93 + Vorinostat; first compound 0.253 µM),relative viability (KN-93 + Vorinostat; first compound 2.53 µM),relative viability (KN-93 + Vorinostat; first compound 8 µM),relative viability (KN-93 + AZD7762; first compound 0.08 µM),relative viability (KN-93 + AZD7762; first compound 0.253 µM),relative viability (KN-93 + AZD7762; first compound 2.53 µM),relative viability (KN-93 + AZD7762; first compound 8 µM)
SW 1573,0.862,1.13,1.02,0.514,0.518,0.565,0.627,0.149,1.31,1.11,1.14,0.919,0.685,0.916,0.746,0.569,,,,
NCI-H596,0.913,1.15,0.941,0.5,0.708,0.847,0.836,0.586,1.05,0.945,1.23,0.985,0.654,0.528,0.656,0.324,1,1.08,1.11,0.845
NCI-H1793,0.742,0.984,1.11,0.264,0.44,0.42,0.472,0.339,,0.804,0.992,0.556,0.882,0.565,0.89,0.249,0.358,0.458,0.454,0.159
NCI-H2170,0.761,1.03,1.01,0.676,0.796,1.16,1.02,0.834,0.271,0.257,0.274,0.249,0.717,0.907,0.932,0.522,0.623,0.971,0.845,0.734
LK-2,1.07,1.17,1.37,0.846,0.715,0.867,0.929,0.78,0.972,1.26,1.02,0.862,0.241,0.279,0.426,0.19,0.419,0.366,0.428,0.3
HCC-366,0.835,1.1,1.11,0.863,0.258,0.305,0.336,0.162,,1.24,1.7,0.83,0.301,0.251,0.514,0.168,0.269,0.221,0.286,0.0943
NCI-H661,0.938,1.02,0.968,0.583,0.525,0.563,0.472,0.383,0.484,0.511,0.448,0.447,0.703,0.923,0.641,0.535,,,,
NCI-H2085,0.951,1.01,1.05,0.81,0.508,0.506,0.575,0.459,0.816,0.695,0.803,0.541,0.791,0.747,0.747,0.578,0.883,1.12,1.06,0.592
NCI-H1437,1.03,1.09,0.895,0.584,0.444,0.471,0.454,0.377,0.632,0.963,0.875,0.425,0.608,0.854,0.529,0.324,1.16,1.29,1.24,0.654
HCC-44,1.02,0.912,1.12,0.764,1.14,0.954,1.04,0.83,0.946,0.945,1.28,0.81,1.13,1.1,1.12,0.915,1.02,0.904,1.04,0.944
NCI-H3122,0.972,1.02,1.07,0.931,0.2,0.21,0.264,0.194,1.09,1.01,1.12,0.978,0.595,1.12,1.08,0.66,0.892,1.11,1.12,0.934
NCI-H1395,0.965,0.969,0.914,0.571,1.03,1.19,1.07,0.775,1.63,1.11,1.04,0.679,0.844,0.721,0.559,0.432,0.421,0.403,0.391,0.345
ChaGo-K-1,0.887,1.14,0.999,0.72,0.906,1.03,0.79,0.785,,,,,0.755,0.896,0.822,0.582,0.797,0.928,0.934,0.713
NCI-H1734,0.942,1.15,1.14,0.668,0.624,0.775,0.653,0.405,1.15,1.1,1.6,0.88,0.808,0.837,0.944,0.576,0.465,0.627,0.597,0.441
NCI-H460,0.821,1.06,1.03,0.652,0.167,0.111,0.195,0.0953,0.302,1.27,1.12,0.45,0.308,0.618,1.08,0.485,0.563,0.556,0.731,0.328
NCI-H2087,0.788,1.13,1.12,0.533,0.249,0.15,0.19,0.128,1.06,1.22,1.02,0.286,0.707,0.963,0.861,0.54,0.821,1.61,1.16,1.04
NCI-H1703,0.871,0.89,0.841,0.459,,,,,1.06,1.41,1.03,0.265,,,,,0.117,0.115,0.105,0.153
IA-LM,0.896,0.948,1.47,0.875,,,,,0.837,0.831,1.31,0.572,0.428,1.02,0.982,1.05,,,,

Cell Line,relative viability (KN-93; 0.08 µM),relative viability (KN-93; 0.253 µM),relative viability (KN-93; 2.53 µM),relative viability (KN-93; 8 µM),relative viability (KN-93 + Trametinib; first compound 0.08 µM),relative viability (KN-93 + Trametinib; first compound 0.253 µM),relative viability (KN-93 + Trametinib; first compound 2.53 µM),relative viability (KN-93 + Trametinib; first compound 8 µM),relative viability (KN-93 + Lapatinib; first compound 0.08 µM),relative viability (KN-93 + Lapatinib; first compound 0.253 µM),relative viability (KN-93 + Lapatinib; first compound 2.53 µM),relative viability (KN-93 + Lapatinib; first compound 8 µM),relative viability (KN-93 + Vorinostat; first compound 0.08 µM),relative viability (KN-93 + Vorinostat; first compound 0.253 µM),relative viability (KN-93 + Vorinostat; first compound 2.53 µM),relative viability (KN-93 + Vorinostat; first compound 8 µM),relative viability (KN-93 + AZD7762; first compound 0.08 µM),relative viability (KN-93 + AZD7762; first compound 0.253 µM),relative viability (KN-93 + AZD7762; first compound 2.53 µM),relative viability (KN-93 + AZD7762; first compound 8 µM)
NCI-H441,0.709,1.14,1.3,0.731,,0.422,0.401,0.177,,,,,,1.06,0.864,0.498,,1.36,1.19,1.06
ABC-1,0.999,0.99,0.773,0.312,,,,,0.92,1.64,1.18,1.05,0.92,1.66,0.586,0.427,0.924,1.05,0.869,0.38
COR-L23,0.848,1.09,1.08,0.665,0.554,0.625,0.722,0.395,0.846,1.47,0.901,0.508,0.448,0.46,0.509,0.402,,,,
NCI-H520,0.91,1.05,1.14,0.815,0.591,0.783,0.682,0.641,,0.904,1.05,0.727,0.619,0.906,0.831,0.58,,,,
UMC-11,0.903,1.14,1.14,0.374,0.607,0.761,0.858,0.223,0.839,1.12,1.32,0.626,0.364,0.35,0.359,0.267,,,,
NCI-H2342,0.911,0.959,0.977,0.818,0.744,0.687,0.94,0.78,,,,,0.635,0.8,0.835,0.719,0.472,0.467,0.539,0.404
SW 900,0.9,0.704,1,0.508,0.93,0.835,1.04,0.643,,,,,0.592,0.333,0.624,0.192,0.669,0.628,0.684,0.522
NCI-H522,1.04,0.986,1.04,0.783,0.997,0.855,0.794,0.595,,,,,0.886,0.966,0.857,0.858,0.831,0.811,0.876,0.77
COR-L 105,1.02,0.932,0.808,0.682,0.452,0.41,0.437,0.399,0.451,0.318,0.318,0.367,0.632,0.824,0.551,0.836,,,,
NCI-H2228,0.904,1.27,1.41,0.711,0.413,0.539,0.573,0.153,1.15,1.17,1.04,0.728,0.588,0.786,0.655,0.346,,,,
NCI-H2009,1.01,1.05,0.922,0.603,0.319,0.283,0.271,0.188,0.899,0.891,0.814,0.418,0.716,0.679,0.637,0.447,,,,
NCI-H2023,0.906,1.01,1.08,0.534,0.55,0.459,0.628,0.434,0.804,0.858,0.932,0.239,0.636,0.67,0.763,0.551,,,,
SK-LU-1,0.8,1.26,1.16,0.759,0.46,0.594,0.51,0.317,0.644,1.15,0.972,0.56,0.626,0.865,0.781,0.473,,,,
NCI-H1650,0.796,0.808,0.941,0.569,0.611,0.508,0.693,0.412,0.758,0.754,0.952,0.482,0.468,0.503,0.541,0.431,,,,
NCI-H1792,0.783,0.83,0.948,0.703,0.277,0.441,0.487,0.275,,0.904,1.67,0.818,,,,,0.583,0.504,0.683,0.353
LCLC-103H,0.869,1.14,0.945,0.812,0.692,0.678,0.609,0.551,,,,,0.782,0.768,0.658,0.573,0.732,0.808,0.822,0.626
SK-MES-1,0.888,0.981,1.07,0.766,0.561,0.493,0.514,0.407,0.464,0.425,0.514,0.425,1.11,1.12,1.14,0.924,,,,
